A short description of data set [1]: Cytotoxic activity in HAE cells. The class given is cell-based. The settings on record: human.
The next data set has as its system Feline coronavirus. The data set can be described thus: Antiviral activity against Feline corona virus infected in CRFK cells. It counts as functional, organism-based. The settings on record: Alphacoronavirus 1, CRFK.
Data set [2] concerns Middle East respiratory syndrome-related coronavirus. The data set can be described thus: Antiviral activity against Middle East respiratory syndrome coronavirus infected in primary HAE cells. The class given is functional, organism-based.
For a further data set, the system named is SARS-CoV. The data set is described as follows: Antiviral activity against SARS coronavirus infected in primary HAE cells. The class given is functional, organism-based. The settings on record: Severe acute respiratory syndrome-related coronavirus.
Data set [3] in a line: in vivo. The settings on record: mouse.
Data set [4] is described as follows: in vivo. The settings on record: rhesus monkey, serum, iv.

The text below walks through data of ChEMBL document CHEMBL4619785, “Advantages of the Parent Nucleoside GS-441524 over Remdesivir for Covid-19 Treatment” (ACS Med Chem Lett, 2020).

The CC50 is the concentration that lowers cell viability or growth by half. Low readings indicate greater toxicity to the cells, high ones lower toxicity to the cells. In general, EC50 refers to the concentration giving half of the maximal effect. In the case of `N#C[C@@]1(c2ccc3c(N)ncnn23)O[C@H](COP(=O)(O)OP(=O)(O)OP(=O)(O)O)[C@@H](O)[C@H]1O` [RDV-TP], the CC50 in data set [1] was greater than 100000 nM. The EC50 amounted to 780 nM in the data set with Feline coronavirus, 860 nM in data set [2] and 180 nM in the data set on SARS-CoV.
As usually defined, the half-life is the time needed for the level to fall by half in the phase considered. Higher therefore signals slow loss. Take `CCC(CC)COC(=O)[C@H](C)N[P@](=O)(OC[C@H]1O[C@@](C#N)(c2ccc3c(N)ncnn23)[C@H](O)[C@@H]1O)Oc1ccccc1` [REMDESIVIR]: the CC50 in data set [1] is greater than 10000 nM. For the same compound, the figures for the EC50 (in data set [2]; with SARS-CoV) were 74 nM and 69 nM, respectively. In addition, the half-life in the data set “in vivo [3]” was 25 min; in the data set “in vivo [4]”, 24 min.
